≈ marks a conversion by molar mass, not a printed value. No end group written: not given here.

One experiment deals with C. albicans. The settings on record: C. albicans (n = 5). On the procedure: (§1) MIC of cationic polymers and polypeptide were tested in accordance with the Clinical and Laboratory Standards Institute (CLSI) guidelines against a panel of antibiotic-susceptible/-resistant bacteria, yeasts and fungal strains. Bacterial and yeast strains were cultured on tryptic soy agar (TSA) and Sabaroud dextrose agar (SDA) plates (Neogen Corporation, MI, USA) overnight respectively. Inocula in Mueller-Hinton broth (MHB) for bacteria and SD broth for C. albicans (Beckton Dickinson, MD, USA) were prepared at 0.5 McFarland. The suspensions were then diluted to a final concentration of 10^5 CFU/ml in a 96-well microtitre plate (SPL Life Sciences Co., Ltd, Korea). […] The antimicrobial activities were compared with topical antiseptic agents, BAK and CHX. A similar protocol was used to determine the MIC of εPL against antibiotic-resistant pathogens. MIC of the polymers and polypeptides against Fusarium strains was determined in full strength RPMI-1640 buffer. Fungal spores were recovered from a 5-day old culture on a potato dextrose agar and diluted to a concentration of 10^5 spores/ml in 0.9% saline solution. A further 50-fold dilution was done in RPMI-1640 buffer and 100 μl of the inoculum was added to 96 well plates containing an equal volume of test peptides at 2-fold serial dilutions. 200 μl of inoculum without any additives and buffer alone served as positive and negative controls, respectively. The plate was then incubated at 30° C. for 48 h. The absorbance value was measured at 600 nm as before and the lowest concentration of the peptide which inhibited 90% growth was reported. All MIC determinations were performed in duplicates.
(§2) MICs of polymers/antibiotics were determined using the microdilution method in 96 well microtitre plates (SPL Life Sciences Co., Ltd, Korea), following the guidelines of Clinical and Laboratory Standards Institute (CLSI) document M100-S18. Briefly, polymers (1-512 μg/ml) or antibiotics were dissolved in appropriate media (Mueller Hinton broth, MHB for bacteria; Sabaroud's Dextrose (SD) broth for yeasts and RPMI buffer for Fusarium strains) and 100 μl of this was then mixed with an equal volume of microbial inoculum (OD600=˜0.08) in the same media and shaken in a closed incubator.

The subject of experiment [1] is Vancomycin-resistant Enterococcus (VRE). As to conditions: VRE (n = 3). On the procedure:
as §1, §2

For a further experiment, the system named is A. baumannii. Briefly: microbe, parasite or virus in culture. As to conditions: A. baumanii (n = 3). The protocol: as §1, §2
For experiment [2], the system named is Carbapenam-resistant Enterobacter strains (CRE). The experiment is described as follows: microbe, parasite or virus in culture. As to conditions: CRE strains (n = 4). On the procedure: as §1, §2
The test system of another experiment is E. cloacae complex. The experiment is described as follows: microbe, parasite or virus in culture. As to conditions: E. clocae complex (n = 4). The protocol: as §1, §2
Another experiment has as its system MRSA. It is filed as cell-based, Staphylococcus aureus. As to conditions: MRSA (n = 9). The protocol: as §1, with “Korea). Polymers and polypeptides were added to the inoculum in 2-fold serial dilutions to give a range of concentrations from 2-1024 μg/ml.” for “Korea).”
as §2

A further experiment deals with K. pneumoniae. Briefly: microbe, parasite or virus in culture. It is filed as cell-based, Klebsiella pneumoniae. As to conditions: K. pneumonia (n = 4). The protocol: as §1, with “Korea). Polymers and polypeptides were added to the inoculum in 2-fold serial dilutions to give a range of concentrations from 2-1024 μg/ml.” for “Korea).”
as §2

The next experiment deals with P. aeruginosa. It is filed as cell-based, Pseudomonas aeruginosa. The settings on record: P. aeruginosa (n = 22). On the procedure:
as §1, with “Korea). Polymers and polypeptides were added to the inoculum in 2-fold serial dilutions to give a range of concentrations from 2-1024 μg/ml.” for “Korea).”
(§3) MICs of polymers/antibiotics were determined using the microdilution method in 96 well microtitre plates (SPL Life Sciences Co., Ltd, Korea), following the guidelines of Clinical and Laboratory Standards Institute (CLSI) document M100-S18. […]

The next experiment relates to S. aureus. Briefly: microbe, parasite or virus in culture. It is filed as cell-based, Staphylococcus aureus. The settings on record: S. aureus (n = 6). On the procedure: as §1, with “Korea). Polymers and polypeptides were added to the inoculum in 2-fold serial dilutions to give a range of concentrations from 2-1024 μg/ml.” for “Korea).”
as §2

For experiment [3], the system named is T-cell lymphomas (HuT78, MJ, HH) and B-cell lymphomas (Ly-4 and Ly-18). The experiment is described as follows: Anticancer properties of hypercharged peptides (MTS). It counts as cell-based, human. As to conditions: 62.5-500 μg/ml. The protocol:
The hyper-charged peptides were screened for their anticancer properties using cell lines derived from patients with various forms of cutaneous lymphomas, including T-cell lymphomas (HuT78, MJ, HH) and B-cell lymphomas (Ly-4 and Ly-18). The relative cytotoxicity of these peptides was also assessed in healthy primary peripheral blood lymphocyte (PBL) T-cells. Cytotoxicity was measured as the mitochondrial function by metabolic reduction of MTS.

The test system of a further experiment is E. coli. The experiment is described as follows: microbe, parasite or virus in culture. It counts as cell-based, Escherichia coli. As to conditions: E. coli (n = 3). On the procedure:
as §1, with “Korea). Polymers and polypeptides were added to the inoculum in 2-fold serial dilutions to give a range of concentrations from 2-1024 μg/ml.” for “Korea).”
as §2

The next experiment has as its system P. aeruginosa ATCC 9027. The experiment is described as follows: Antimicrobial activity of the peptides in trypsin. It is filed as cell-based, Pseudomonas aeruginosa. The settings on record: trypsin:peptide 1:100, 37° C. The protocol: To determine the antimicrobial activity of the peptides in the presence of proteases, 1 mg/ml of HC1 and HC2 were incubated with trypsin enzyme:peptide weight ratio 1:100) for 1 h at 37° C. After this, a 20 μl aliquot of this solution was mixed 180 μl of bacterial inoculum (P. aeruginosa ATCC 9027, 10^5 CFU/ml in MHB) and incubated at room temperature for 6 h. 100 μL aliquots of the suspension was diluted serially (10-fold) in 10 mM PBS solution and pour plated on MH agar plates and incubated at 37° C. for 48 h and colony forming units per ml (CFU/ml) are enumerated.

For experiment [4], the system named is F. solani and F. oxysporum. Briefly: Minimum inhibitory concentration (MIC) determination, Fusarium strains. It counts as cell-based. The settings on record: F. solani and F. oxysporum (n = 6). The protocol:
MIC of cationic polymers and polypeptide were tested in accordance with the Clinical and Laboratory Standards Institute (CLSI) guidelines against a panel of antibiotic-susceptible/-resistant bacteria, yeasts and fungal strains. Bacterial and yeast strains were cultured on tryptic soy agar (TSA) and Sabaroud dextrose agar (SDA) plates (Neogen Corporation, MI, USA) overnight respectively. Inocula in Mueller-Hinton broth (MHB) for bacteria and SD broth for C. albicans (Beckton Dickinson, MD, USA) were prepared at 0.5 McFarland. The suspensions were then diluted to a final concentration of 10^5 CFU/ml in a 96-well microtitre plate (SPL Life Sciences Co., Ltd, Korea). Polymers and polypeptides were added to the inoculum in 2-fold serial dilutions to give a range of concentrations from 2-1024 μg/ml. […] The antimicrobial activities were compared with topical antiseptic agents, BAK and CHX. […] MIC of the polymers and polypeptides against Fusarium strains was determined in full strength RPMI-1640 buffer. […] The absorbance value was measured at 600 nm as before and the lowest concentration of the peptide which inhibited 90% growth was reported. […]
as §3

With `N=C(N)NCCC[C@@H](NC(=O)[C@@H](N)CCCCNC(=O)[C@@H](CCCNC(=N)N)NC(=O)[C@@H](N)CCCCNC(=O)[C@@H](CCCNC(=N)N)NC(=O)[C@@H](N)CCCCNC(=O)[C@@H](CCCNC(=N)N)NC(=O)[C@@H](N)CCCCNC(=O)[C@@H](CCCNC(=N)N)NC(=O)[C@@H](N)CCCCNC(=O)[C@@H](CCCNC(=N)N)NC(=O)[C@@H](N)CCCCN)C(=O)O` [HC4, KrKrKrKrKrKr], the MIC in the experiment on C. albicans is 16 to 32 µg/mL; in [1] it was 16 µg/mL (≈ 9.28 µM); in the experiment on A. baumannii, 16 to 32 µg/mL; in [2] it was 64 to 128 µg/mL; against E. cloacae complex, 64 to 128 µg/mL; against MRSA, 16 to 64 µg/mL. Also, the MIC is 16 to 128 µg/mL against K. pneumoniae, 16 to 64 µg/mL with P. aeruginosa, 32 µg/mL (≈ 18.6 µM) against S. aureus and 16 µg/mL (≈ 9.28 µM) with E. coli. In addition, the “cell killing in lymphoma cell lines” value in experiment [3] is listed as “varying degrees of cell killing”.
Consider `N=C(N)NCCC[C@H](NC(=O)[C@H](N)CCCCNC(=O)[C@H](CCCNC(=N)N)NC(=O)[C@H](N)CCCCNC(=O)[C@H](CCCNC(=N)N)NC(=O)[C@H](N)CCCCNC(=O)[C@H](CCCNC(=N)N)NC(=O)[C@H](N)CCCCNC(=O)[C@H](CCCNC(=N)N)NC(=O)[C@H](N)CCCCNC(=O)[C@H](CCCNC(=N)N)NC(=O)[C@H](N)CCCCN)C(=O)O` [HC6, kRkRkRkRkRkR], for which the MIC in the experiment on C. albicans is 16 to 32 µg/mL; in experiment [1] it was 16 µg/mL (≈ 9.28 µM); with A. baumannii, 16 to 64 µg/mL; in experiment [2] it was 64 to 128 µg/mL; in the experiment on E. cloacae complex, 64 to 128 µg/mL; against MRSA, 16 to 32 µg/mL. Moreover, the MIC is 32 to 128 µg/mL against K. pneumoniae, 32 to 64 µg/mL in the experiment on P. aeruginosa, 32 to 64 µg/mL with S. aureus and 16 µg/mL (≈ 9.28 µM) in the experiment on E. coli. Moreover, the “cell killing in lymphoma cell lines” value in experiment [3] is “varying degrees of cell killing”.
As to KRKRKRKRKRKR [HC1, KRKRKRKRKRKR], the MIC is 64 to 128 µg/mL against C. albicans; 16 to 32 µg/mL in experiment [1]; 64 to 128 µg/mL with A. baumannii; 64 to 128 µg/mL in experiment [2]; 64 to 128 µg/mL in the experiment with E. cloacae complex; 16 to 64 µg/mL in the experiment with MRSA. The MIC against K. pneumoniae is 64 µg/mL; against P. aeruginosa, 32 to 128 µg/mL; against S. aureus, 32 to 64 µg/mL; in the experiment on E. coli, 16 µg/mL. For the same compound, the “decrease in the bacterial viability after incubation with trypsin for 1 hour” value in the experiment with P. aeruginosa ATCC 9027 is “complete loss of activity”. The “cell killing in lymphoma cell lines” value in experiment [3] is recorded as “varying degrees of cell killing”.
On to `C[C@@H]1C/C=C/C=C/C=C/C=C/[C@H](O[C@@H]2O[C@H](C)[C@@H](O)[C@H](N)[C@@H]2O)C[C@@H]2O[C@](O)(C[C@@H](O)C[C@H]3O[C@@H]3/C=C/C(=O)O1)C[C@H](O)[C@H]2C(=O)O` [Natamycin], for which the MIC in experiment [4] lay within 8000 to 16000 µg/mL (≈ 12000 to 24000 µM).

The record behind these values is patent US11396531B2, “Antimicrobial peptides comprising epsilon lysine residues” (priority 2016, dated 2022).
